# Tests used:
# [1] = bacteroides intestinalis, 12 h, 2 µM
# [2] = The drug is tested on Clostridium sporogenes strain: ATCC15579 for biotransformation. The drug concentrations were measured before and after a 12-h incubation by liquid-chromatography-coupled mass spectrometry (LC–MS); settings: 2 µM
# [3] = The drug is tested on Enterococcus faecalis strain: V583 for biotransformation. The drug concentrations were measured before and after a 12-h incubation by liquid-chromatography-coupled mass spectrometry (LC–MS); settings: 2 µM
# [4] = The drug is tested on Anaerotruncus colihominis strain: DSM17241 for biotransformation. The drug concentrations were measured before and after a 12-h incubation by liquid-chromatography-coupled mass spectrometry (LC–MS); settings: 2 µM
# [5] = bacteroides thetaiotaomicron, 12 h, 2 µM
# [6] = The drug is tested on Bacteroides fragilis strain: HMW610 for biotransformation. The drug concentrations were measured before and after a 12-h incubation by liquid-chromatography-coupled mass spectrometry (LC–MS); settings: 2 µM
# [7] = limosilactobacillus reuteri cf48-3a, 12 h, 2 µM
# [8] = The drug is tested on Bacteroides uniformis strain: ATCC8492 for biotransformation. The drug concentrations were measured before and after a 12-h incubation by liquid-chromatography-coupled mass spectrometry (LC–MS); settings: 2 µM
# [9] = The drug is tested on Bacteroides xylanisolvens strain: DSM18836 for biotransformation. The drug concentrations were measured before and after a 12-h incubation by liquid-chromatography-coupled mass spectrometry (LC–MS); settings: 2 µM
# [10] = bacteroides thetaiotaomicron, 12 h, 2 µM; remark: listed apart in the source
# [11] = The drug is tested on Bacteroides fragilis strain: HMW615 for biotransformation. The drug concentrations were measured before and after a 12-h incubation by liquid-chromatography-coupled mass spectrometry (LC–MS); settings: 2 µM
# [12] = The drug is tested on Clostridium scindens strain: ATCC35704 for biotransformation. The drug concentrations were measured before and after a 12-h incubation by liquid-chromatography-coupled mass spectrometry (LC–MS); settings: 2 µM
# [13] = The drug is tested on Coprococcus comes strain: ATCC27758 for biotransformation. The drug concentrations were measured before and after a 12-h incubation by liquid-chromatography-coupled mass spectrometry (LC–MS); assay type: ADME; set-up: dose 2 uM, timepoint 0 vs 12 hours; settings: 2 µM
# [14] = The drug is tested on Providencia rettgeri strain: DSM1131 for biotransformation. The drug concentrations were measured before and after a 12-h incubation by liquid-chromatography-coupled mass spectrometry (LC–MS); assay type: ADME; set-up: dose 2 uM, timepoint 0 vs 12 hours; settings: 2 µM
# [15] = The drug is tested on Bacteroides coprophilus strain: DSM18228 for biotransformation. The drug concentrations were measured before and after a 12-h incubation by liquid-chromatography-coupled mass spectrometry (LC–MS); settings: 2 µM
# [16] = roseburia intestinalis, 12 h, 2 µM
# Description: The drug is tested on Roseburia intestinalis strain: L1-82 for biotransformation. The drug concentrations were measured before and after a 12-h incubation by liquid-chromatography-coupled mass spectrometry (LC–MS)
# [17] = The drug is tested on Bifidobacterium breve strain: DSM20213 for biotransformation. The drug concentrations were measured before and after a 12-h incubation by liquid-chromatography-coupled mass spectrometry (LC–MS); settings: 2 µM
# [18] = The drug is tested on Parabacteroides merdae strain: ATCC43184 for biotransformation. The drug concentrations were measured before and after a 12-h incubation by liquid-chromatography-coupled mass spectrometry (LC–MS); settings: 2 µM
# [19] = The drug is tested on Clostridium ramosum strain: DSM1402 for biotransformation. The drug concentrations were measured before and after a 12-h incubation by liquid-chromatography-coupled mass spectrometry (LC–MS); settings: thomasclavelia ramosa, 2 µM
Structure (SMILES),Bacterial Biotransformation [1],Bacterial Biotransformation [2],Bacterial Biotransformation [3],Bacterial Biotransformation [4],Bacterial Biotransformation [5],Bacterial Biotransformation [6],Bacterial Biotransformation [7],Bacterial Biotransformation [8],Bacterial Biotransformation [9],Bacterial Biotransformation [10],Bacterial Biotransformation [11],Bacterial Biotransformation [12],Bacterial Biotransformation [13],Bacterial Biotransformation [14],Bacterial Biotransformation [15],Bacterial Biotransformation [16],Bacterial Biotransformation [17],Bacterial Biotransformation [18],Bacterial Biotransformation [19]
C[C@]12CCC(=O)C=C1[C@@H]1C[C@@H]1[C@H]1[C@@H]3[C@@H]4C[C@@H]4[C@@]4(CCC(=O)O4)[C@@]3(C)CC[C@@H]12 [DROSPIRENONE],Compound NOT metabolized,Compound metabolized,Compound NOT metabolized,Compound NOT metabolized,Compound NOT metabolized,Compound metabolized,Compound NOT metabolized,Compound metabolized,Compound metabolized,Compound NOT metabolized,Compound metabolized,Compound NOT metabolized,–,–,–,–,–,–,–
O=c1n(CCCN2CCN(c3cccc(Cl)c3)CC2)nc2ccccn12 [TRAZODONE],Compound NOT metabolized,Compound NOT metabolized,Compound NOT metabolized,Compound NOT metabolized,Compound NOT metabolized,Compound NOT metabolized,Compound NOT metabolized,–,Compound NOT metabolized,Compound NOT metabolized,Compound NOT metabolized,Compound NOT metabolized,Compound NOT metabolized,Compound NOT metabolized,Compound NOT metabolized,Compound NOT metabolized,Compound NOT metabolized,Compound NOT metabolized,–
COc1ccc(CCN(C)CCCC(C#N)(c2ccc(OC)c(OC)c2)C(C)C)cc1OC (stereo not drawn),Compound metabolized,–,Compound NOT metabolized,Compound NOT metabolized,Compound metabolized,Compound NOT metabolized,Compound NOT metabolized,Compound metabolized,Compound metabolized,Compound metabolized,Compound NOT metabolized,–,Compound NOT metabolized,Compound NOT metabolized,Compound NOT metabolized,–,Compound NOT metabolized,Compound NOT metabolized,–
N#Cc1ccc2[nH]cc(CCCCN3CCN(c4ccc5oc(C(N)=O)cc5c4)CC3)c2c1 [VILAZODONE],Compound metabolized,Compound metabolized,Compound metabolized,Compound NOT metabolized,Compound metabolized,Compound metabolized,Compound NOT metabolized,Compound metabolized,Compound metabolized,Compound metabolized,Compound metabolized,Compound NOT metabolized,Compound NOT metabolized,–,Compound metabolized,Compound NOT metabolized,Compound NOT metabolized,Compound metabolized,–
CCCCCCOC(=O)/N=C(/N)c1ccc(NCc2nc3cc(C(=O)N(CCC(=O)OCC)c4ccccn4)ccc3n2C)cc1.CS(=O)(=O)O [DABIGATRAN ETEXILATE MESYLATE],Compound NOT metabolized,Compound NOT metabolized,Compound NOT metabolized,Compound NOT metabolized,Compound NOT metabolized,–,Compound NOT metabolized,Compound NOT metabolized,–,–,–,Compound NOT metabolized,Compound NOT metabolized,Compound NOT metabolized,Compound NOT metabolized,Compound NOT metabolized,–,Compound NOT metabolized,Compound NOT metabolized
Br.CN1CCC[C@@H]1Cc1c[nH]c2ccc(CCS(=O)(=O)c3ccccc3)cc12 [ELETRIPTAN HYDROBROMIDE],Compound NOT metabolized,Compound NOT metabolized,Compound NOT metabolized,Compound NOT metabolized,Compound NOT metabolized,Compound NOT metabolized,Compound NOT metabolized,Compound NOT metabolized,Compound NOT metabolized,–,–,Compound NOT metabolized,Compound NOT metabolized,Compound NOT metabolized,Compound NOT metabolized,Compound NOT metabolized,–,Compound NOT metabolized,Compound NOT metabolized
NC(CO)(CO)CO.O=C(c1ccccc1)c1ccc2n1CCC2C(=O)O (stereo not drawn) [KETOROLAC TROMETHAMINE],Compound NOT metabolized,Compound NOT metabolized,Compound NOT metabolized,Compound NOT metabolized,–,Compound metabolized,Compound NOT metabolized,Compound metabolized,Compound metabolized,Compound metabolized,–,Compound NOT metabolized,–,Compound NOT metabolized,–,–,–,–,Compound NOT metabolized
CCCc1nc2c(C)cc(-c3nc4ccccc4n3C)cc2n1Cc1ccc(-c2ccccc2C(=O)O)cc1,Compound NOT metabolized,–,–,–,Compound metabolized,Compound metabolized,–,Compound metabolized,Compound metabolized,–,–,Compound NOT metabolized,Compound NOT metabolized,Compound NOT metabolized,–,Compound NOT metabolized,Compound NOT metabolized,–,Compound NOT metabolized
CCN(CC)CCCC(C)Nc1c2ccc(Cl)cc2nc2ccc(OC)cc12 (stereo not drawn) [QUINACRINE],Compound NOT metabolized,Compound NOT metabolized,–,Compound NOT metabolized,Compound NOT metabolized,–,Compound NOT metabolized,Compound NOT metabolized,Compound NOT metabolized,Compound NOT metabolized,–,–,Compound NOT metabolized,–,Compound NOT metabolized,Compound NOT metabolized,Compound NOT metabolized,Compound NOT metabolized,Compound NOT metabolized
